Laboratory results reported in patent publication US10738051B2, “β-lactamase inhibitors” (priority 2016, dated 2020).

Columns and labels:
[1] = tested on: E. cloacae ATCC BAA-1143 (AmpC); assay: In vitro synergistic inhibitory concentration (SIC) assay; format: cell-based; conditions: Enterobacter cloacae, ATCCBAA1143, 37° C. 20 hours, read-out: minimum inhibitory concentration, used alone
Protocol: (§1) 2) 30 μL dimethyl sulfoxide was added to columns 2-12 of the 96-V well plate. 60 μL prepared ceftazidime was added to column 1. 30 μL ceftazidime was transferred from column 1 to column 2 and mixed with a pipette. The same operation was continued until column 11, and 30 μL of the mixture in column 11 was discarded. This was the compound mother plate.
(§2) Mix the liquid in the mother plate with a pipette.
(§3) 4) One day before the experiment, the bacterial glycerol stock which was stored in a −80° C. refrigerator was streaked on a trypticase soy agar plate (TSA), and the plate was incubated in a 37° C. incubator overnight. On the day of the experiment, the monoclonal bacterial was suspended in physiological saline and the turbidity of which was adjusted to 0.5 McFarland standard, corresponding to 1×10^8 CFU/ml. This suspension was diluted 100-fold to 1×10^6 CFU/mL with caton-adjusted Mueller-Hnton broth (CAMHB), which was used as an inoculation fluid.
(§4) 5) a 96-U plate was used as a test plate. Firstly, adding 98 μL CAMHB to each well of the test plate and transferring 2 μL solution in the mother plate to the test plate. 100 μL inoculation fluid was added to each well of the test plate.
(§5) 6) The test plate was incubated at 37° C. for 20 hours.
(§6) The above-mentioned method was also used to determine the antibacterial activity of the test compound or the antibiotic when used alone.

[2] = tested on: K. pneumoniae ATCC 51503 (TEM-10/12); assay: as above; format: cell-based; conditions: Klebsiella pneumoniae, ATCC51503, 37° C. 20 hours, read-out: minimum inhibitory concentration, used alone
Protocol: as §1, §2, §3, §4, §5, §6

[3] = tested on: K. pneumoniae ATCC 51504 (TEM-10); assay: as above; format: cell-based; conditions: Klebsiella pneumoniae, ATCC51504, 37° C. 20 hours, read-out: minimum inhibitory concentration, used alone
Protocol: as §1, §2, §3, §4, §5, §6

[4] = tested on: K. pneumoniae ATCC BAA-1144 (AmpC); assay: as above; format: cell-based; conditions: Klebsiella pneumoniae, ATCCBAA1144, 37° C. 20 hours, read-out: minimum inhibitory concentration, used alone
Protocol: as §1, §2, §3, §4, §5, §6

[5] = tested on: K. pneumoniae ATCC BAA-1705 (KPC); assay: as above; format: cell-based; conditions: Klebsiella pneumoniae, ATCCBAA1705, 37° C. 20 hours, read-out: minimum inhibitory concentration, used alone
Protocol: as §1, §2, §3, §4, §5, §6

[6] = tested on: K. pneumoniae ATCC BAA-1898 (KPC); assay: as above; format: cell-based; conditions: Klebsiella pneumoniae, ATCCBAA1898, 37° C. 20 hours, read-out: minimum inhibitory concentration, used alone
Protocol: as §1, §2, §3, §4, §5, §6

[7] = tested on: K. pneumoniae ATCC BAA-1899 (KPC); assay: as above; format: cell-based; conditions: Klebsiella pneumoniae, ATCCBAA1899, 37° C. 20 hours, read-out: minimum inhibitory concentration, used alone
Protocol: as §1, §2, §3, §4, §5, §6

[8] = tested on: K. pneumoniae ATCC BAA-205 (TEM-1/SHV-1/SHV-12); assay: as above; format: cell-based; conditions: Klebsiella pneumoniae, ATCCBAA205, 37° C. 20 hours, read-out: minimum inhibitory concentration, used alone
Protocol: as §1, §2, §3, §4, §5, §6

[9] = tested on: K. pneumoniae ATCC-700603 (SHV-18); assay: as above; format: cell-based; conditions: Klebsiella pneumoniae, ATCC700603, 37° C. 20 hours, read-out: minimum inhibitory concentration, used alone
Protocol: as §1, §2, §3, §4, §5, §6

[10] = tested on: KPC-2 carbapenemase-producing strains (8 strains), clinically isolated Klebsiella pneumoniae; assay: SIC assay against Chinese clinical isolates (broth microdilution MIC); format: cell-based; conditions: for drug resistance rate / drug sensitive rate: KPC-2 carbapenemase-producing strains (8 strains), CLSI criteria of the antibiotic, inhibitor fixed at 4 μg/mL
From the text: (§7) The broth microdilution method was used to determine the minimum inhibitory concentration (MIC) of antibacterial agents (with and without BLI lead compound) against clinical isolates of carbapenemase-producing strains.
(§8) 1. Drug susceptibility test: according to the method of antimicrobial susceptibility test described in the 2016 edition of the US Clinical and Laboratory Standards Institute (CLSI) document, the MIC of commonly used antibacterial drugs against clinically isolated bacteria was determined by a broth microdilution method.
(§9) 2. Strains: 8 KPC-2 carbapenemase-producing strains, 8 NDM-1 metalloenzyme-producing strains, and 6 OXA-181 carbapenemase-producing strains. All strains were clinically isolated Klebsiella pneumoniae.
(§10) 4. Quality control strains: quality control strains of the drug susceptibility test include Escherichia coli ATCC 25922 and ATCC 35218.

[11] = tested on: NDM-1 metalloenzyme-producing strains (8 strains), clinically isolated Klebsiella pneumoniae; assay: as above; format: cell-based; conditions: for MIC50 / MIC90: Klebsiella pneumoniae; for MIC50 / MIC90 / MIC range: NDM-1 metalloenzyme-producing K. pneumoniae clinical isolates (8 strains), enzyme inhibitor in combinations fixed at 4 μg/mL; for drug resistance rate / drug sensitive rate: NDM-1 metalloenzyme-producing strains (8 strains), CLSI criteria of the antibiotic, inhibitor fixed at 4 μg/mL
From the text: as §7, §8, §9, §10

[12] = tested on: OXA-181 carbapenemase-producing strains (7 strains), clinically isolated Klebsiella pneumoniae; assay: as above; format: cell-based; conditions: for MIC50 / MIC90: Klebsiella pneumoniae; for drug resistance rate / drug sensitive rate: OXA-181 carbapenemase-producing strains (7 strains), CLSI criteria of the antibiotic, inhibitor fixed at 4 μg/mL
From the text: as §7, §8
2. […] All strains were clinically isolated Klebsiella pneumoniae.
as §10

[13] = tested on: E. coli ATCC BAA-2523 (OXA-48); assay: In vitro synergistic inhibitory concentration (SIC) assay; format: cell-based; conditions: Escherichia coli, ATCCBAA2523, 37° C. 20 hours, read-out: minimum inhibitory concentration, used alone
Protocol: as §1, §2, §3, §4, §5, §6

[14] = tested on: K. pneumoniae ATCC BAA-2470 (NDM-1); assay: as above; format: cell-based; conditions: Klebsiella pneumoniae, ATCCBAA2470, 37° C. 20 hours, read-out: minimum inhibitory concentration, used alone
Protocol: as §1, §2, §3, §4, §5, §6

[15] = tested on: K. pneumoniae ATCC BAA-2472 (NDM-1); assay: as above; format: cell-based; conditions: Klebsiella pneumoniae, ATCCBAA2472, 37° C. 20 hours, read-out: minimum inhibitory concentration, used alone
Protocol: as §1, §2, §3, §4, §5, §6

[16] = tested on: K. pneumoniae ATCC BAA-2524 (OXA-48); assay: as above; format: cell-based; conditions: Klebsiella pneumoniae, ATCCBAA2524, 37° C. 20 hours, read-out: minimum inhibitory concentration, used alone
Protocol: as §1, §2, §3, §4, §5, §6

[17] = target: AmpC-EC (Class C) β-lactamase (UniProt P05364); assay: In vitro enzymatic assay (Nitrocefin); format: biochemical; conditions: Nitrocefin 0.1 mM, 1 × PBS pH 7.4, 0.1 mg/mL BSA, read-out: IC50, inhibitory activity on β-lactamase
Protocol: (§11) 2) Prepare buffer solution A (1×PBS, pH 7.4, 0.1 mg/mL BSA) for enzymatic assay;
(§12) 3) The compound mother liquor was 4-fold serial diluted for 11 times with DMSO in a 96-well tip-bottom plate, which was used as a working solution. A 96-well flat bottom plate was used as a test plate, the corresponding reaction buffer was previously added to each well, followed by addition of a corresponding volume of the working solution (100 μM-0.095 nM and 0 nM). Wherein, EDTA-Na2 was used as a control for the NDM-1 test at a concentration of 20 mM;
(§13) 4) adding the corresponding β-lactamase, and the test plate was incubated at 37° C. for 5 minutes;
(§14) 5) Adding 5 μL Nitrocefin (the final reaction volume was 100 μL), the absorbance OD490 of the reaction solution in the plate was measured by a microplate reader and the result was recorded, the absorbance was measured every minute over 30 minutes;
(§15) 6) The microplate reader could give a curve of OD490 over time. The slope of the curve (Abs2−Abs1)/(T2−T1) was calculated by taking two data points Abs1 and Abs2 within the linear range of the curve.
(§16) 7) The relative inhibition rate was calculated as follows: Slope (EC) was calculated under the condition of absence of an inhibitor, and Slop(S) was calculated under the condition of an inhibitor at a certain concentration.
(§17) The relative inhibition rate and the corresponding concentration of the inhibitor were used to calculate the IC50 value of the inhibitor on β-lactamase. In this experiment, the IC50 was calculated using the formula of GraphPad Prism 5.0, log(inhibitor) vs. normalized response-Variable slope.

[18] = target: CTX-M-44 (Class C) β-lactamase (Escherichia coli, UniProt Q47066); assay: In vitro enzymatic assay (Nitrocefin); format: biochemical
Protocol: as §11, §12, §13, §14, §15, §16, §17

[19] = target: OXA-2 (Class D) β-lactamase (Escherichia coli, UniProt P0A1V9); assay: In vitro enzymatic assay (Nitrocefin); format: biochemical
Protocol: as §11, §12, §13, §14, §15, §16, §17

[20] = target: OXA-9 (Class D) β-lactamase (Klebsiella pneumoniae, UniProt P0A3M3); assay: In vitro enzymatic assay (Nitrocefin); format: biochemical
Protocol: as §11, §12, §13, §14, §15, §16, §17

[21] = Klebsiella pneumoniae, KPC-2 carbapenemase-producing K. pneumoniae clinical isolates (8 strains), enzyme inhibitor in combinations fixed at 4 μg/mL
[22] = OXA-181 carbapenemase-producing K. pneumoniae clinical isolates (7 strains), enzyme inhibitor in combinations fixed at 4 μg/mL

MIC [1] [mg/L]	MIC [2] [mg/L]	MIC [3] [mg/L]	MIC [4] [mg/L]	MIC [5] [mg/L]	MIC [6] [mg/L]	MIC [7] [mg/L]	MIC [8] [mg/L]	MIC [9] [mg/L]	MIC50 [10, 21] [mg/L]	MIC50 [11] [mg/L]	MIC90 [11] [mg/L]	MIC range [11] [mg/L]	MIC50 [12, 22] [mg/L]	MIC90 [12, 22] [mg/L]	Compound	drug resistance rate [10]	drug sensitive rate [10]	drug resistance rate [11]	drug sensitive rate [11]	drug resistance rate [12]	other results
> 128	> 128	> 128	> 128	> 128	> 128	> 128	32	64	> 128	> 128	> 128	>128	> 128	> 128	CC(C)(O/N=C(\C(=O)N[C@@H]1C(=O)N2C(C(=O)[O-])=C(C[n+]3ccccc3)CS[C@H]12)c1csc(N)n1)C(=O)O [Ceftazidime, ceftazidime]	100	0	100	0	100	MIC range ([10]; KPC-2 carbapenemase-producing K. pneumoniae clinical isolates (8 strains), enzyme inhibitor in combinations fixed at 4 μg/mL): 64 to 128 mg/L; MIC90 [10, 21]: > 128 mg/L; drug sensitive rate [12]: 0
–	–	–	–	–	–	–	–	–	64	4	32	2 to 32	0.5	2	C[C@@H](O)[C@H]1C(=O)N2C(C(=O)O)=C(S[C@@H]3CN[C@H](C(=O)N(C)C)C3)[C@H](C)[C@H]12 [meropenem]	100	0	75	0	0	MIC range [12, 22]: 0.5 to 2 mg/L; drug sensitive rate [12]: 85.7
4	> 128	> 128	> 128	> 128	> 128	> 128	> 128	> 128	–	–	–	–	–	–	NCCONC(=O)[C@@H]1CC[C@@H]2CN1C(=O)N2OS(=O)(=O)O [OP-0595]	–	–	–	–	–	MIC [13]: 16 mg/L; MIC [14]: > 128 mg/L; MIC [15]: > 128 mg/L; MIC [16]: > 128 mg/L
–	–	–	–	–	–	–	–	–	–	–	–	–	–	–	C[C@@H](O)[C@H]1C(=O)N2C(C(=O)O)=C(S[C@@H]3CN[C@H](C(=O)Nc4cccc(C(=O)O)c4)C3)[C@H](C)[C@H]12 [Ertapenem, ertapenem]	–	–	–	–	–	MIC [13]: 8 mg/L; MIC [14]: > 128 mg/L; MIC [15]: > 128 mg/L; MIC [16]: 4 mg/L
–	–	–	–	–	–	–	–	–	–	64	–	–	–	–	C[C@H]1[C@H](NC(=O)/C(=N\OC(C)(C)C(=O)O)c2csc(N)n2)C(=O)N1S(=O)(=O)O [aztreonam]	–	–	–	–	–	–
–	–	–	–	–	–	–	–	–	–	–	–	–	–	–	NC(=O)[C@@H]1CC[C@@H]2CN1C(=O)N2OS(=O)(=O)O [Avibactam, avibactam]	–	–	–	–	–	IC50 [17]: 0.107 µM; IC50 [18]: 0.067 µM; IC50 [19]: 1.49 µM; IC50 [20]: 3.13 µM
